Source: patent US20250205200A1, “5-METHOXY-N,N-[…][…] THE TREATMENT OF […]” (GH RESEARCH IRELAND LIMITED, priority 2022, published 2025)

Assays:
[1] = system: Salmonella typhimurium (TA98, TA100, TA1535 and TA1537); assay: Bacterial mutation test, Salmonella typhimurium; assay type: cell-based; conditions: up to 5000 μg/plate; absence and presence of S-9
Description: (§1) These conditions included treatments at concentrations up to 5000 μg/plate (the maximum recommended concentration according to current regulatory guidelines), in the absence and in the presence of a rat liver metabolic activation system (S-9).

[2] = system: Escherichia coli (WP2 uvrA pKM101); assay: Bacterial mutation test, Escherichia coli; assay type: cell-based; conditions: up to 5000 μg/plate; absence and presence of S-9
Description: as §1

[3] = Pharmacokinetics of 5-MeO-DMT and bufotenine after inhalation; assay type: in vivo, human

## COc1ccc2[nH]cc(CCN(C)C)c2c1 [5-MeO-DMT]
[1]
  Induction of mutation: did not induce mutation
[2]
  Induction of mutation: did not induce mutation
[3]; 10 minutes after inhalation, 6, 12, 18 mg
  Plasma concentration as % of Cmax: ≤ 10 % of Cmax
[3]; 2 hours after inhalation, 6, 12, 18 mg
  Plasma concentration as % of Cmax: ≤ 1 % of Cmax
[3]; 3 hours after inhalation, 6, 12, 18 mg
  Detectability in the plasma: no longer detectable
[3]; inhaled
  Time of maximum concentrations and pharmacological effects: during and immediately after dosing
[3]; repeated administration within 1 to 4 hours
  Accumulation upon repeated administration: No accumulation
